Patent US12577234B2, “Antagonists of the muscarinic acetylcholine receptor M4” (Vanderbilt University, priority 2017, dated 2026)

Target: T1, human mAChR M4 (Homo sapiens, UniProt P08173)
T1 construct: expressed in transfected cells; host or cells: CHO-K1 (ATCC), stably co-expressing chimeric G protein Gqi5
T1 sequence (P08173 1-479): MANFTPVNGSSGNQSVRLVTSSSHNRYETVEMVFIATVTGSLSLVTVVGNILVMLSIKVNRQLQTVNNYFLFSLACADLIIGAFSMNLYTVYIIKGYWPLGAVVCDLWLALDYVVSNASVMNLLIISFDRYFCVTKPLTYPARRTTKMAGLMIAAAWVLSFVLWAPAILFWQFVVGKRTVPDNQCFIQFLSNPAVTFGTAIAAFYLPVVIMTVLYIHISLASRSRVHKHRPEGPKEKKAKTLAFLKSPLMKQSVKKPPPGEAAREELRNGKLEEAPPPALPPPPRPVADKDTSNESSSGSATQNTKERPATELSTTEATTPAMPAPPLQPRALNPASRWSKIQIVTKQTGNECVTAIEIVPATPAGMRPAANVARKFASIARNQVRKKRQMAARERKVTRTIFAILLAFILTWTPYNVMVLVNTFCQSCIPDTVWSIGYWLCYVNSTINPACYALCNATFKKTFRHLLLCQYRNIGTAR
Experiment: mAChR M4 cell-based functional assay (calcium mobilization, EC80 acetylcholine), human M4
Details: for IC50: M4/Gqi5/CHO-K1 cells, decrease of EC80 acetylcholine response; for Emin: human M4, % ACh maximum at 30 μM
Protocol: Human or rat M4 cDNA, along with the chimeric G protein Gqi5, were transfected into Chinese hamster ovary (CHO-K1) cells purchased from the American Type Culture Collection using Lipofectamine2000. M4/Gqi5/CHO cells were grown in Ham's F-12 medium containing 10% heat-inactivated fetal bovine serum (FBS), 20 mM HEPES, 500 μg/mL G418 sulfate, and 200 μg/mL Hygromycin B.
For high throughput measurement of agonist-evoked increases in intracellular calcium, CHO-K1 cells stably expressing muscarinic receptors were plated in growth medium lacking G418 and hygromycin at 15,000 cells/20 μL/well in Greiner 384-well black-walled, tissue culture (TC)-treated, clear-bottom plates (VWR). Cells were incubated overnight at 37° C. and 5% CO2. […] Compound master plates were formatted in a 10 point concentration-response curve (CRC) format (1:3 dilutions) in 100% DMSO with a starting concentration of 10 or 1 mM using a BRAVO liquid handler (Agilent). Test compound CRCs were then transferred to daughter plates (240 nL) using the Echo acoustic plate reformatter (Labcyte, Sunnyvale, CA) and then diluted into assay buffer (40 μL) to a 2× stock using a Thermo Fisher Combi (Thermo Fisher Scientific, Waltham, MA).
Calcium flux was measured using the Functional Drug Screening System (FDSS) 6000 or 7000 (Hamamatsu Corporation, Tokyo, Japan) as an increase in the fluorescent static ratio. Compounds were applied to cells (20 μL, 2×) using the automated system of the FDSS at 2 seconds into the protocol and the data were collected at 1 Hz. […] Agonist activity was analyzed as a concentration-dependent increase in calcium mobilization upon compound addition. Positive allosteric modulator activity was analyzed as a concentration-dependent increase in the EC20 acetylcholine response. Antagonist activity was analyzed as a concentration-dependent decrease in the EC80 acetylcholine response; for the purposes of the tables herein, an IC50 (inhibitory concentration 50) was calculated as a concentration-dependent decrease of the response elicited by an EC80 concentration of acetylcholine. Concentration-response curves were generated using a four-parameter logistical equation in XLFit curve fitting software (IDBS, Bridgewater, NJ) for Excel (Microsoft, Redmond, WA) or Prism (GraphPad Software, Inc., San Diego, CA) or the Dotmatics software platform (Dotmatics, Bishop's Stortford, UK).

Row | SMILES | IC50 (Table 9) [nM] | Emin (Table 9) [%] | Human M4 Emin (Table 10) [%] | IC50 (Table 10) [nM]
1 | Cc1cnn(C)c1-c1ccc(NCCC2C[C@@H]3CN(Cc4ccccc4F)C[C@@H]3C2)nn1 (stereo partly drawn) [Compound 127, N-[2-[(3aR,6aS)-2-[(2-fluorophenyl)methyl]-3,3a,4,5,6,6a-hexahydro-1H-cyclopenta[c]pyrrol-5-yl]ethyl]-6-(2,4-dimethylpyrazol-3-yl)pyridazin-3-amine] | 57.8 | 4.93 | – | –
2 | CC(C)(C)CCN1C[C@H]2C[C@H](Oc3ccc(-c4ccc(C(F)(F)F)cc4)nn3)C[C@H]2C1 [Compound 139, (3aR,5s,6aS)-2-(3,3-dimethylbutyl)-5-[6-[4-(trifluoromethyl)phenyl]pyridazin-3-yl]oxy-3,3a,4,5,6,6a-hexahydro-1H-cyclopenta[c]pyrrole] | – | – | 4 | 1560
3 | CC(CN1C[C@H]2C[C@@H](Oc3ccc(-c4cc(F)ccc4Cl)nn3)C[C@H]2C1)C(C)(C)C (stereo partly drawn) [Compound 55, (3aR,5r,6aS)-5-[6-(2-chloro-5-fluoro-phenyl)pyridazin-3-yl]oxy-2-(2,3,3-trimethylbutyl)-3,3a,4,5,6,6a-hexahydro-1H-cyclopenta[c]pyrrole] | 430 | 3.60 | – | –
4 | COc1ccc(F)cc1-c1ccc(N[C@H]2C[C@@H]3CN(CC4CCOCC4)C[C@@H]3C2)nn1 [Compound 212, (3aR,5s,6aS)-N-[6-(5-fluoro-2-methoxy-phenyl)pyridazin-3-yl]-2-(tetrahydropyran-4-ylmethyl)-3,3a,4,5,6,6a-hexahydro-1H-cyclopenta[c]pyrrol-5-amine] | – | – | 5 | 0.486
5 | F[C@H]1CCN(c2ccc(N[C@H]3C[C@@H]4CN(CC5CCOCC5)C[C@@H]4C3)nn2)C1 [Compound 195, (3aR,5s,6aS)-N-[6-[(3R)-3-fluoropyrrolidin-1-yl]pyridazin-3-yl]-2-(tetrahydropyran-4-ylmethyl)-3,3a,4,5,6,6a-hexahydro-1H-cyclopenta[c]pyrrol-5-amine] | – | – | 4 | 9.11
6 | Cc1cnn(C)c1-c1ccc(N[C@H]2C[C@@H]3CN(CC4CCCCO4)C[C@@H]3C2)nn1 (stereo partly drawn) [Compound 38, (3aR,5s,6aS)-N-[6-(2,4-dimethylpyrazol-3-yl)pyridazin-3-yl]-2-(tetrahydropyran-2-ylmethyl)-3,3a,4,5,6,6a-hexahydro-1H-cyclopenta[c]pyrrol-5-amine] | 31.8 | 5.45 | – | –
7 | Fc1ccc(Cl)c(-c2ccc(N[C@H]3C[C@@H]4CN(Cc5cn6ccccc6n5)C[C@@H]4C3)nn2)c1 [Compound 165, (3aR,5s,6aS)-N-[6-(2-chloro-5-fluoro-phenyl)pyridazin-3-yl]-2-(imidazo[1,2-a]pyridin-2-ylmethyl)-3,3a,4,5,6,6a-hexahydro-1H-cyclopenta[c]pyrrol-5-amine] | – | – | 3 | 68.9
8 | Cc1nn(C)cc1-c1ccc(N[C@H]2C[C@@H]3CN(Cc4ccccc4F)C[C@@H]3C2)nn1 [compound 10] | 41 | – | – | –
9 | Cc1nn(C)cc1-c1ccc(N[C@H]2C[C@@H]3CN(CC45CC6CC(CC(C6)C4)C5)C[C@@H]3C2)nc1 [Compound 150, (3aR,5s,6aS)-2-(1-adamantylmethyl)-N-[5-(1,3-dimethylpyrazol-4-yl)-2-pyridyl]-3,3a,4,5,6,6a-hexahydro-1H-cyclopenta[c]pyrrol-5-amine] | – | – | 3 | 161
10 | Cc1cnn(C)c1-c1ccc(NC[C@H]2C[C@@H]3CN(CC(C)C(C)(C)C)C[C@@H]3C2)nn1 (stereo partly drawn) [Compound 65, N-[[(3aR,5s,6aS)-2-(2,3,3-trimethylbutyl)-3,3a,4,5,6,6a-hexahydro-1H-cyclopenta[c]pyrrol-5-yl]methyl]-6-(2,4-dimethylpyrazol-3-yl)pyridazin-3-amine] | 253 | 4.16 | – | –
11 | COc1ccc(-c2ccc(N[C@H]3C[C@@H]4CN(CC5CCOCC5)C[C@@H]4C3)nn2)cc1 [Compound 201, (3aR,5s,6aS)-N-[6-(4-methoxyphenyl)pyridazin-3-yl]-2-(tetrahydropyran-4-ylmethyl)-3,3a,4,5,6,6a-hexahydro-1H-cyclopenta[c]pyrrol-5-amine] | – | – | 7 | 3.54
12 | CCC(C)CN1C[C@H]2CC(COc3ccc(-c4cc(F)ccc4Cl)nn3)C[C@H]2C1 (stereo partly drawn) [Compound 109, (3aR,6aS)-5-[[6-(2-chloro-5-fluoro-phenyl)pyridazin-3-yl]oxymethyl]-2-(2-methylbutyl)-3,3a,4,5,6,6a-hexahydro-1H-cyclopenta[c]pyrrole] | 583 | 4.62 | – | –
13 | CN(C)C(=O)c1ccc(-c2ccc(N[C@H]3C[C@@H]4CN(CC5CCOCC5)C[C@@H]4C3)nn2)cc1 [Compound 207, 4-[6-[[(3aR,5s,6aS)-2-(tetrahydropyran-4-ylmethyl)-3,3a,4,5,6,6a-hexahydro-1H-cyclopenta[c]pyrrol-5-yl]amino]pyridazin-3-yl]-N,N-dimethyl-benzamide] | – | – | 16 | 44.8
14 | Fc1ccc(Cl)c(-c2ccc(N[C@H]3C[C@@H]4CN(Cc5ccc6c(c5)OCO6)C[C@@H]4C3)nn2)c1 [Compound 166, (3aR,5s,6a5)-2-(1,3-benzodioxol-5-ylmethyl)-N-[6-(2-chloro-5-fluoro-phenyl)pyridazin-3-yl]-3,3a,4,5,6,6a-hexahydro-1H-cyclopenta[c]pyrrol-5-amine] | – | – | 2 | 6.19
15 | Cc1cnn(C)c1-c1ccc(NC[C@H]2C[C@@H]3CN(CC4CC5C=CC4C5)C[C@@H]3C2)nn1 (stereo partly drawn) [Compound 64, N-[[(3aR,5s,6aS)-2-(5-bicyclo[2.2.1]hept-2-enylmethyl)-3,3a,4,5,6,6a-hexahydro-1H-cyclopenta[c]pyrrol-5-yl]methyl]-6-(2,4-dimethylpyrazol-3-yl)pyridazin-3-amine] | 7.9 | 3.74 | – | –
16 | Cc1nn(C)cc1-c1ccc(N[C@H]2C[C@@H]3CN(CCc4ccccc4)C[C@@H]3C2)nn1 [compound 12] | 4 | – | – | –
17 | Cc1nn(C)cc1-c1ccc(NCC2C[C@@H]3CN(CC4CC5C=CC4C5)C[C@@H]3C2)nn1 (stereo partly drawn) [Compound 62, N-[[(3aR,6aS)-2-(5-bicyclo[2.2.1]hept-2-enylmethyl)-3,3a,4,5,6,6a-hexahydro-1H-cyclopenta[c]pyrrol-5-yl]methyl]-6-(1,3-dimethylpyrazol-4-yl)pyridazin-3-amine] | 18.9 | 3.32 | – | –
18 | Cc1cccnc1CN1C[C@H]2CC(CCNc3ccc(-c4c(C)cnn4C)nn3)C[C@H]2C1 (stereo partly drawn) [Compound 124, N-[2-[(3aR,6aS)-2-[(3-methyl-2-pyridyl)methyl]-3,3a,4,5,6,6a-hexahydro-1H-cyclopenta[c]pyrrol-5-yl]ethyl]-6-(2,4-dimethylpyrazol-3-yl)pyridazin-3-amine] | 20.6 | 3.25 | – | –
19 | Cc1cccnc1CN1C[C@H]2C[C@H](Nc3ccc(-c4c(C)cnn4C)nn3)C[C@H]2C1 [Compound 24, (3aR,5s,6aS)-N-[6-(2,4-dimethylpyrazol-3-yl)pyridazin-3-yl]-2-[(3-methyl-2-pyridyl)methyl]-3,3a,4,5,6,6a-hexahydro-1H-cyclopenta[c]pyrrol-5-amine] | 37.8 | 5.36 | – | –
20 | c1cc(-c2ccc(N[C@H]3C[C@@H]4CN(CC5CCOCC5)C[C@@H]4C3)nn2)ccn1 [Compound 219, (3aR,5s,6aS)-N-[6-(4-pyridyl)pyridazin-3-yl]-2-(tetrahydropyran-4-ylmethyl)-3,3a,4,5,6,6a-hexahydro-1H-cyclopenta[c]pyrrol-5-amine] | – | – | 9 | 1.83
